Source: patent US11731977B2, “SGC stimulators” (Cyclerion Therapeutics, Inc., priority 2016, dated 2023)
Where two headings read alike, the source gives them in different places.

Experiments:
rats = experiment: Acute and tonic pain: healthy rats, tail flick test (Example 13); details: Compound I-1 p.o. 10 mg/kg, 120 minutes after treatment
[1] = Non-human primate (NHP) CSF pharmacokinetic properties (Example 6); assay type: in vivo, Cynomolgus monkeys; details: male, Cynomolgus monkey
Experimental: Protocol PK in NHP was determined following intravenous and oral dosing. For the intravenous (IV) experiments, a group of 4 male Cynomolgus monkeys were used. The IV group was dosed with 0.3 mg/kg of a compound formulated as a solution in 10% PEG-400, 25% of a 20% Solutol HS 15 in Water, and 65% DPBS. IV doses were administered by injection and delivered via catheter into the cephalic vein. For the oral (PO) experiments, a group of 4 male Cynomolgus monkeys were used. The PO group was dosed with 1 mg/kg of a compound formulated as a suspension in 1% HPMC E5, 0.2% Tween 80, 0.5% MC in water. PO doses were administered by oral gavage and delivered via gelatin capsule.
Plasma and CSF samples were collected as follows: samples of CSF and blood were collected at 1, 4 and 24 hours post IV dosing and 2, 8 and 24 hours post PO dosing. CSF samples (0.05 mL) were collected either the cisterna magna (primary site) or the lumbosacral region (L4/5) via direct needle puncture at the appropriate time points. Blood samples (0.25 mL) were collected from a peripheral vein. These samples were kept on ice until processed for plasma. Blood samples were centrifuged at 3200 rpm for 5 minutes at approximately 5° C. within 1 hour of collection. Plasma was directly transferred to a 96-well plate tube (0.125 mL). Plug caps were placed on the tubes and the tubes frozen at approximately −70° C. and stored until analysis. Plasma was collected and analyzed for the presence of a compound.
Quantitation of Compounds. The compound of the invention and the internal standard were extracted from plasma and CSF by precipitation. Samples were analyzed using liquid chromatography (LC) with tandem mass spectrometric detection (MS/MS) using electrospray ionization. The standard curve range was from 1 to 1000 ng/mL. Results of the compounds described herein in this assay are illustrated in Tables 6a and 6b below (0.3 mg/kg IV dose, 1 mg/kg PO dose).
Kp,uu is defined as the concentration ratio of unbound drug in CSF to unbound drug in plasma. Unbound drug in plasma (or free plasma concentration) is calculated by multiplying the total plasma concentration by the unbound fraction as determined by plasma protein binding. The CSF concentration is then divided by the free plasma concentration to determine the Kp,uu. (See e.g., Di et al., J. Med Chem., 56, 2-12 (2013))

[2] = tested on: brain activity in awake rats; experiment: Brain activation in rats measured by fMRI-BOLD (Example 11); assay type: in vivo, rat; details: single IV administration, vs peripherally restricted sGC stimulator
Text: Objective. Functional magnetic resonance imaging or functional MRI (fMRI) is a functional neuroimaging procedure using MRI technology that measures brain activity by detecting changes associated with blood flow. This technique relies on the fact that cerebral blood flow and neuronal activation are coupled. When an area of the brain is in use, blood flow to that region also increases. Awake rats were studied by fMRI to assess changes (“fingerprint”) in brain activity following a single intravenous administration of a compound of the invention
Experimental Design. 24 male Sprague-Dawley rats weighing from 275-350 g were used. Following acclimation, the animals were placed in the restrainer and positioned in the magnet. Catheters were placed in each animal to allow for remote dosing when the animals were in the magnet. Scans were acquired continuously for 5 minutes prior to administration of either a vehicle or a compound of the invention to establish a baseline for the brain activity. Following the 5-minute baseline period, either the vehicle or the compound of the invention was administered to the rat and scans were acquired continuously for 30-45 minutes.

Kp uu at 1 h ([1]; CSF / unbound plasma, 0.3 mg/kg IV, @ 1 h): 1.8
Kp uu at 4 h ([1]; CSF / unbound plasma, 0.3 mg/kg IV, @ 4 h): 3
Kp uu at 24 h ([1]; CSF / unbound plasma, 0.3 mg/kg IV): 2.8
Kp uu at 2 h ([1]; CSF / unbound plasma, 1 mg/kg PO, @ 2 h): 1.8
Kp uu at 8 h ([1]; CSF / unbound plasma, 1 mg/kg PO, @ 8 h): 2.5
Kp uu at 24 h ([1]; CSF / unbound plasma, 1 mg/kg PO): 2.1
concentration at 1 h ([1]; CSF, 0.3 mg/kg IV, @ 1 h, read-out: CSF Conc.): 27 nM
concentration at 4 h ([1]; CSF, 0.3 mg/kg IV, @ 4 h, read-out: CSF Conc.): 20 nM
concentration at 24 h ([1]; CSF, 0.3 mg/kg IV, read-out: CSF Conc.): 6 nM
concentration at 2 h ([1]; CSF, 1 mg/kg PO, @ 2 h, read-out: CSF Conc.): 42 nM
concentration at 8 h ([1]; CSF, 1 mg/kg PO, @ 8 h, read-out: CSF Conc.): 31 nM
concentration at 24 h ([1]; CSF, 1 mg/kg PO, read-out: CSF Conc.): 11 nM
SMILES: Fc1ccccc1Cc1nc(-c2nc(C(F)(F)F)n[nH]2)cn2ccnc12 [Compound I-1, 8-(2-fluorobenzyl)-6-(3-(trifluoromethyl)-1H-1,2,4-triazol-5-yl)imidazo[1,2-a]pyrazine]
% of activity vs. vehicle (rats): 25%
brain activation (fMRI-BOLD) [2]: a greater region of the brain is activated
